{"source": "patent US20240180884A1", "about": "“PYRIDOSTIGMINE FOR USE IN THE TREATMENT OF COVID-19” (priority 2021, published 2024)", "tested_on": "SARS-COV-2 infection (severe COVID-19)", "assay": "Randomized, parallel, double-blind, placebo-controlled clinical trial of oral pyridostigmine in adults hospitalized due to severe COVID-19", "assay_type": "in vivo, human", "conditions": "for Primary outcome: Invasive mechanical ventilation or death - %: N = 94, day 28, placebo 23.4%; for Death - % (28-day case fatality): day 28, 60 mg/day orally, placebo 20.2%; for Discharge - % (probability of being discharged from the hospital within 28 days of randomization): placebo 79.8%", "protocol": "The trial was conducted to reduce the incidence of mechanical ventilation or death in adults hospitalized due to severe COVID-19. A randomized, parallel, double-blind, placebo-controlled clinical trial was conducted. Participants were randomized (1:1 ratio) to receive oral pyridostigmine at a dose of 60 mg/day orally or an identical placebo (drug-grade starch) until the occurrence of any of the a priori specified outcomes, the hospital discharge or a maximum period of 14 days of hospital confinement, whichever comes first. The study was externally and independently watched and monitored by an independent Data and Security Monitoring Committee (DSMB). The study was conducted in two parts: an initial phase aimed at determining safety (from May 5 to Jul. 4, 2020) in which the first 44 participants were evaluated, followed by a part of a phase aimed at evaluating the effect, or lack thereof, of pyridostigmine in patients with severe COVID-19 (Jul. 5, 2020 to Jan. 30, 2021).\nAdult hospitalized patients (>18 years) with confirmed SARS-COV-2 infection based on a positive RT-PCR test for SARS-COV-2 ribonucleic acid in a respiratory sample (nasopharyngeal or nasal swab) and a imaging study compatible with pneumonia, and at least one criterion of high risk of death.\nParticipants were randomized 1:1, with parallel allocation. Demographic information was collected from the participants at baseline, including age, sex, presence of comorbidities (including diabetes mellitus, hypertension, obesity, cardiovascular disease, lung disease or other chronic medical conditions). Participants who had already been discharged from the hospital by day 28 were contacted by phone to assess their vital and functional status.\nBased on early evidence from China, an estimated 25% of patients hospitalized with severe SARS-COV-2 infection would develop complications that would lead to the need for invasive mechanical ventilation or death. Consequently, it is estimated that this sample size would allow us to identify with a power of 80% a reduction in the need for invasive mechanical ventilation or death of 10% in the group that received pyridostigmine compared to the group that received placebo, using a two-tailed […] at the significance level of 0.05. […] Based on the results of said analysis and with the data presented here, it was decided to terminate the study early.\nThe study was carried out at Instituto Nacional de Ciencias Médicas y Nutrición Salvador Zubirán (principal center) and Instituto Nacional de Cardiología Ignacio Chávez (recruiting center), two COVID-19 designated hospitals in Mexico City, Mexico.\nAn intention-to-treat analysis was performed comparing the proportion of outcomes between both therapeutic arms using the X^2 test. A multivariate logistic regression model was used to evaluate the variables associated with primary outcomes.", "key": {"[1]": {"conditions": "at the proposed dose of pyridostigmine (60 mg/day)"}, "[2]": {"conditions": "secondary outcome, 60 mg/day orally, N = 94"}}, "data": [{"smiles": "CN(C)C(=O)Oc1ccc[n+](C)c1", "note": "[Pyridostigmine]", "values": [{"measurement": "Median time (IQR) from randomization to discharge", "setting": "60 mg/day orally, N = 94", "value": 5, "unit": "days"}, {"measurement": "Rate of adverse events", "setting": "[1]", "value": "5-6%"}, {"measurement": "Serious adverse effects", "setting": "[1]", "value": "no serious adverse effects reported"}, {"measurement": "Primary outcome: Invasive mechanical ventilation or death - %", "setting": "hospitalized severe COVID-19 patients, 60 mg/day orally up to 14 days, p=0.03", "value": "(11.7) %"}, {"measurement": "Primary outcome: Invasive mechanical ventilation or death - %", "setting": "hospitalized severe COVID-19 patients, 60 mg/day orally up to 14 days, p=0.03, listed as pyridostigmine", "value": 11.7, "unit": "%"}, {"measurement": "Primary outcome: Invasive mechanical ventilation or death - no.", "setting": "hospitalized severe COVID-19 patients, 60 mg/day orally up to 14 days, N = 94, intention to treat, day 28", "value": 11}, {"measurement": "Death after invasive mechanical ventilation (text, among ventilated patients)", "setting": "placebo 57.1%, no difference between groups", "value": 33.3, "unit": "%"}, {"measurement": "Risk index, 28-day case fatality", "setting": "pyridostigmine vs. placebo, 95% CI 0.16 to 0.7, p=0.01", "value": 0.33}, {"measurement": "Hazard ratio, invasive mechanical ventilation or death on day 28", "setting": "pyridostigmine vs. placebo, 95% CI 0.24 to 0.94, p=0.03", "value": 0.47}, {"measurement": "Death after invasive mechanical ventilation - no.", "setting": "[2]", "value": 2}, {"measurement": "Invasive mechanical ventilation - %", "setting": "[2]", "value": "(6.4) %"}, {"measurement": "Invasive mechanical ventilation - no.", "setting": "[2]", "value": 6}, {"measurement": "Invasive mechanical ventilation - %", "setting": "secondary outcome, 60 mg/day orally, N = 94, listed as pyridostigmine", "value": 6.3, "unit": "%"}, {"measurement": "Death - no.", "setting": "secondary outcome, before day 28, 60 mg/day orally, N = 94", "value": 7}, {"measurement": "Death - % (28-day case fatality)", "setting": "secondary outcome, N = 94, p=0.01", "value": "(7.5) %"}, {"measurement": "Death - % (28-day case fatality)", "setting": "secondary outcome, N = 94, p=0.01, listed as pyridostigmine", "value": 7.4, "unit": "%"}, {"measurement": "Death after invasive mechanical ventilation - %", "setting": "secondary outcome, percent of all N = 94", "value": "(2.1) %"}, {"measurement": "Discharge - no.", "setting": "secondary outcome, within 28 days of randomization, N = 94", "value": 87}, {"measurement": "Discharge - % (probability of being discharged from the hospital within 28 days of randomization)", "setting": "within 28 days of randomization, N = 94, p=0.01", "value": "(92.6) %"}, {"measurement": "Discharge - % (probability of being discharged from the hospital within 28 days of randomization)", "setting": "within 28 days of randomization, N = 94, p=0.01, listed as pyridostigmine", "value": 92.6, "unit": "%"}]}]}
